Measurements reported in US20220127297A1, “Novel Antibacterial 3"-Derivatives Of 4,6-Disubstituted 2,5-Dideoxystreptamine Aminoglycoside Antibiotics” (AGILeBiotics B.V., priority 2018, published 2022).
Values after ≈ are worked out from the molar mass of the structure shown. Where two headings read alike, the source gives them in different places.

Experiments:
[1] = test system: clinical isolates of methicillin-resistant Staphylococcus aureus (MRSA); assay: MIC determination at Fidelta, clinical isolates; assay type: cell-based
Text: (§1) 3.4.2 MIC Determination at Fidelta (Croatia)
(§2) Tested reference compounds. Amikacin sulfate (Cat. No. 01693, Chem-Impex), Gentamicin sulfate (Cat. No. G4918, Sigma Aldrich), Ceftazidime Pentahydrate (Cat. No. 1098130, USP), Meropenem (Cat. No. 1392454, USP), Tobramycin (Cat. No. 1667508, USP).
(§3) Microbial strains. Klebsiella pneumoniae KP-1919 (abdomen), Klebsiella pneumoniae KP-1935 (urine), Klebsiella pneumoniae KP-1936 (abscess), Klebsiella pneumoniae KP-1937 (blood), Klebsiella pneumoniae KP-1942 (urine), Klebsiella pneumoniae KP-1944 (blood), Klebsiella pneumoniae KP-2027 (tracheal aspirate), Klebsiella pneumoniae KP-2029 (urine), Klebsiella pneumoniae KP-2030 (trachea), Klebsiella pneumoniae KP-2031 (skin), Klebsiella pneumoniae KP-2032 (urine), Klebsiella pneumoniae KP-2033 (urine), Klebsiella pneumoniae KP-2034 (urine), Klebsiella pneumoniae KP-2035 (urine), Klebsiella pneumoniae KP-2036 (urine), Klebsiella pneumoniae KP-2037 (urine), Klebsiella pneumoniae ATCC 43816, Pseudomonas aeruginosa PA-1948 (wound), Pseudomonas aeruginosa PA-1949 (urine), Pseudomonas aeruginosa PA-1950 (sputum), Pseudomonas aeruginosa PA-1952 (wound), Pseudomonas aeruginosa PA-1953 (urine), Pseudomonas aeruginosa PA-1954 (sputum), Pseudomonas aeruginosa PA-1967 (blood), Pseudomonas aeruginosa ATCC27853, Acinetobacter baumannii AB-1931 (urine), Acinetobacter baumannii AB-1932 (urine), Acinetobacter baumannii AB-2017 (bronchial aspirate), Acinetobacter baumannii AB-2018 (skin), Acinetobacter baumannii AB-2019 (bronchial aspirate), Acinetobacter baumannii AB-1964 (blood), Acinetobacter baumannii AB-2025 (skin), Acinetobacter baumannii AB-2026 (skin), Acinetobacter baumannii ATCC17978, methicillin-resistant Staphylococcus aureus MRSA-1995 (liquor), methicillin-resistant Staphylococcus aureus MRSA-1998 (wound), methicillin-resistant Staphylococcus aureus MRSA-1999 (skin), methicillin-resistant Staphylococcus aureus MRSA-2003 (wound), vancomycin-resistant Enterococcus faecium VRE-2005 (urine), vancomycin-resistant Enterococcus faecium VRE-2006 (urine), vancomycin-resistant Enterococcus faecium VRE-2007 (urine), vancomycin-resistant Enterococcus faecium VRE-2008 (urine), vancomycin-resistant Enterococcus faecium VRE-2009 (urine), vancomycin-resistant Enterococcus faecium VRE-2010 (urine), vancomycin-resistant Enterococcus faecium VRE-2011 (rectum), vancomycin-resistant Enterococcus faecium VRE-2012 (rectum), vancomycin-resistant Enterococcus faecium VRE-2013 (rectum).
(§4) Culture media and equipment. BBL™ Mueller Hinton Broth (REF 275730, Lot. 7009699, Becton Dickinson); Mueller Hinton Agar 2 (Ref. No. 97580-500G-F, Lot. No. BCBV4646, Sigma); Cellstar, 96-well plates, U-bottom (Cat. No. 650180, Lot. No. E14123EB, Greiner Bio-one); 96-well deep well plate, 1 mL (Cat. No. 278606, Nunc); Incubator (Binder); Laminar flow (Thermo Scientific); BioPhotometer (Eppendorf); DEN-1B (McFarland Densitometer, Biosan); McFarland standards (polymer microparticle suspension, Biosan).
(§5) Compound preparation. For testing, 5 mg/mL DMSO solutions of the test compounds and reference antibiotics were used. Out of these DMSO solutions, 43.5 μL was transferred to 1656.5 μL of MH media in a deep well plate. Out of these working solutions 100 μL was transferred to wells in the third column of 96-well plates. Plates are previously filled with 50 μL of MH media in all wells except for the wells in the third column. After compound and antibiotic addition, 50 μL was transferred from the third to the fourth column, then from the fourth to the fifth and so on. In this manner, the compounds and antibiotics were plated in 96-well plate in serial two-fold dilutions giving a final concentration range of 64-0.125 μg/mL.
(§6) Inoculum preparation. Designations used for clinical isolates were from Fidelta strain collection bank. Microorganisms used were all revived from skim milk storage at −70° C. by plating them on MH agar plates.

[2] = test system: clinical isolates of Vancomycin-resistant Enterococcus faecium (VRE); assay: MIC determination at Fidelta, clinical isolates; assay type: cell-based
Text: as §1, §2, §3, §4, §5, §6

[3] = test system: clinical isolates of multidrug-resistant Klebsiella pneumoniae (and ATCC43816); assay: MIC determination at Fidelta, clinical isolates; assay type: cell-based; conditions: Klebsiella pneumoniae
Text: as §1, §2, §3, §4, §5, §6

[4] = test system: Klebsiella pneumoniae ATCC 43816; assay: Murine neutropenic thigh model of infection; assay type: in vivo, male CD-1 mice
Protocol: 4.1 Murine Neutropenic Thigh Model of Infection (Kiebsiella Pneumoniae ATCC 43816)
A comparator antibiotic (meropenem; Cat. No. 1392454, USP) was used during both studies.
During the first study ABX5006 and ABX5020 were tested at a dose of 64 mg/kg (group 5 for ABX5006, group 8 for ABX5020), 16 mg/kg (group 4 for ABX5006, group 7 for ABX5020) and of 4 mg/kg (group 3 for ABX5006, group 6 for ABX5020).
During a second study ABX5026 and ABX5039 were tested at a dose of 4 mg/kg (group 5 for ABX5026, group 8 for ABX5039), 1 mg/kg (group 4 for ABX5026, group 7 for ABX5039) and of 0.25 mg/kg (group 3 for ABX5026, group 6 for ABX5039).
Animals were dosed subcutaneously (10 mL/kg) twice with 8 h interval. […] A CFU count below limit of detection (LOD=1.0×10^2 CFU/mL) was substituted with the value 0 in order to perform statistical analysis.
Inoculum preparation for intramuscular infection. The strain was streaked out onto MH agar.

[5] = ATCC43816, KP-1919, Abdomen/VIM, ESBL
[6] = ATCC43816, KP-1935, Urine/ESBL, NDM
[7] = ATCC43816, KP-1936, Abscess/NDM
[8] = ATCC43816, KP-1937, Blood/VIM, ESBL
[9] = ATCC43816, KP-1942, Urine (catheter)/VIM
[10] = ATCC43816, KP-2027, Tracheal aspirate/ESBL, OXA-48, ColR
[11] = ATCC43816, KP-2029, Urine/ESBL, OXA-48
[12] = ATCC43816, KP-2030, Trachea/ESBL, OXA-48
[13] = ATCC43816, KP-2031, Skin/ESBL, OXA-48
[14] = ATCC43816, KP-2032, Urine/ESBL, OXA-48
[15] = ATCC43816, KP-2033, Urine/OXA-A8
[16] = ATCC43816, KP-2034, Urine/ESBL, OXA-48
[17] = ATCC43816, KP-2035, Urine/ESBL, OXA-48
[18] = ATCC43816, KP-2037, Urine/ESBL, OXA-48

Row | SMILES | MIC90 ([1]; MRSA-1995, Liquor) [µg/mL] | MIC90 ([1]; MRSA-1998, Wound) [µg/mL] | MIC90 ([1]; MRSA-1999, Skin) [µg/mL] | MIC90 ([1]; MRSA-2003, Wound) [µg/mL] | MIC90 ([2]; VRE-2005, Urine) [µg/mL] | MIC90 ([2]; VRE-2006, Urine) [µg/mL] | MIC90 ([2]; VRE-2007, Urine) [µg/mL] | MIC90 ([2]; VRE-2008, Urine) [µg/mL] | MIC90 ([2]; VRE-2009, Urine) [µg/mL] | MIC90 ([2]; VRE-2010, Urine) [µg/mL] | MIC90 ([2]; VRE-2011, Rectum) [µg/mL] | MIC90 ([2]; VRE-2012, Rectum) [µg/mL] | MIC90 ([2]; VRE-2013, Rectum) [µg/mL] | MIC90 [3, 5] [µg/mL] | MIC90 [3, 6] [µg/mL] | MIC90 [3, 7] [µg/mL] | MIC90 [3, 8] [µg/mL] | MIC90 [3, 9] [µg/mL] | MIC90 ([3]; ATCC43816, KP-1944, Blood/NDM) [µg/mL] | MIC90 [3, 10] [µg/mL] | further results
1 | CC(C)(O/N=C(\C(=O)N[C@@H]1C(=O)N2C(C(=O)[O-])=C(C[n+]3ccccc3)CS[C@H]12)c1csc(N)n1)C(=O)O [Ceftazidime, reference compound] | > 64 | > 64 | > 64 | > 64 | > 64 | > 64 | > 64 | > 64 | > 64 | > 64 | > 64 | > 64 | > 64 | 64 (≈ 117 µM) | > 64 | > 64 | > 64 | > 64 | > 64 | > 64 | MIC90 ([3]; ATCC43816, K. pneumoniae ATCC43816 strain, read-out: MIC 90): < 0.125 µg/mL; MIC90 [3, 11]: > 64 µg/mL; MIC90 [3, 12]: > 64 µg/mL; MIC90 [3, 13]: > 64 µg/mL; MIC90 [3, 14]: > 64 µg/mL; MIC90 [3, 15]: > 64 µg/mL; MIC90 [3, 16]: > 64 µg/mL; MIC90 [3, 17]: > 64 µg/mL; MIC90 ([3]; ATCC43816, KP-2036, Urine/ESBL): > 64 µg/mL; MIC90 [3, 18]: > 64 µg/mL
2 | C[C@@H](O)[C@H]1C(=O)N2C(C(=O)O)=C(S[C@@H]3CN[C@H](C(=O)N(C)C)C3)[C@H](C)[C@H]12 [Meropenem, meropenem, reference compound] | 64 (≈ 167 µM) | 8 (≈ 20.9 µM) | 64 (≈ 167 µM) | 8 (≈ 20.9 µM) | > 64 | > 64 | > 64 | > 64 | > 64 | > 64 | > 64 | > 64 | > 64 | 4 (≈ 10.4 µM) | 32 (≈ 83.4 µM) | > 64 | 32 (≈ 83.4 µM) | 64 (≈ 167 µM) | > 64 | 4 (≈ 10.4 µM) | Change from vehicle group ([4]; Log CFU/g thigh, dose 100 mg/kg SC BID): −4.56; Avg. Log CFU/g thigh ([4]; dose 100 mg/kg SC BID, 24 h post infection): 4.95 Log CFU/g; Change from vehicle group ([4]; dose 100 mg/kg, SC, BID, Avg. Log CFU/g thigh vs vehicle): 8.17; Avg. Log CFU/g ([4]; dose 100 mg/kg, SC, BID, thigh, 24 hours post infection): 1.61 Log CFU/g; survival rate ([4]; first study, vehicle group 50% mortality): 100%; MIC90 ([3]; ATCC43816): < 0.125 µg/mL; MIC90 [3, 11]: 4 µg/mL (≈ 10.4 µM); MIC90 [3, 12]: 4 µg/mL (≈ 10.4 µM); MIC90 [3, 13]: 2 µg/mL (≈ 5.22 µM); MIC90 [3, 14]: 2 µg/mL (≈ 5.22 µM); MIC90 [3, 15]: 16 µg/mL (≈ 41.7 µM); MIC90 [3, 16]: 16 µg/mL (≈ 41.7 µM); MIC90 [3, 17]: 2 µg/mL (≈ 5.22 µM); MIC90 ([3]; ATCC43816, KP-2036, Urine/ESBL): 16 µg/mL (≈ 41.7 µM); MIC90 [3, 18]: 2 µg/mL (≈ 5.22 µM)
